Results published in publication PMC11040653, “Fluorescent carbazole-derived α-amino acids: structural mimics of tryptophan” (Chemical Science, 2024).
No end group written: not given here. 13e = not defined here

Key:
[1] = UV-Vis absorption and fluorescence emission spectra of amino acids 13a–e; type: physicochemical; settings: for λ Abs / λ Em / λ Em (second wavelength): 5 μM; for λ Abs: UV-Vis; for λ Em / λ Em (second wavelength): fluorescence
Experimental: (§1) Next, the photophysical properties of amino acids 13a–13e were measured.[22,23] As it was important to identify an amino acid that could be used as a probe for different applications, the photophysical properties were assessed in both an organic solvent (methanol) and water (Table 2).
(§2) 5. Photophysical Data for a-Amino Acids 13a–e
(§3) Absorption and emission data were recorded using the following instruments:
(§4) 1. UV-Vis spectra were recorded on a Perkin Elmer Lamda 25 instrument. Fluorescence spectra were recorded on a Shimadzu RF-5301PC spectrofluorophotometer. Emission data were measured using excitation and emission bandpass filters of 3 nm.
2. Both UV-Vis spectra and fluorescence spectra were recorded on a Horiba Duetta Fluorescence and Absorbance spectrometer. Absorbance spectra were recorded with an integration time of 0.05 s, and a band pass of 5 nm. Fluorescence spectra were recorded with and excitation and emission band pass of 5 nm, an integration time of 2 s, and with detector accumulations set to 1. […]

[2] = Fluorescence quantum yield (comparative method, anthracene and L-tryptophan standards) and brightness; type: physicochemical; settings: for Φ F (quantum yield): anthracene and L-tryptophan as standards, five concentrations, absorption below 0.1
Experimental: as §1, §2, §3, §4
2. Both UV-Vis spectra and fluorescence spectra were recorded on a Horiba Duetta Fluorescence and Absorbance spectrometer. Absorbance spectra were recorded with an integration time of 0.05 s, and a band pass of 5 nm. Fluorescence spectra were recorded with and excitation and emission band pass of 5 nm, an integration time of 2 s, and with detector accumulations set to 1.
Quantum yields were determined using a comparative method against two standards. Anthracene (Φ = 0.27, in ethanol) and ʟ-tryptophan (Φ = 0.14 in water) were used as standard references.9 The integrated fluorescence intensity of each compound was determined from the emission spectra given.
Measurements were performed at five different concentrations. Concentrations were chosen to ensure the absorption value was below 0.1 to avoid re-absorption effects. Integrated fluorescence intensity was plotted as a function of the measured absorbance and a linear fit was calculated. The resultant gradient was then used to calculate the quantum yield, using the equation below: […]
Subscript ST signifies the quantities associated with the quantum yield standard. Subscript X signifies the quantities associated with the novel compound. GradX is the determined gradient associated with the novel compound. GradST is the determined gradient associated with quantum yield standard. η is the refractive index of the solvent used in the fluorescence measurements. η = 1.333 for water, 1.361 for ethanol and 1.331 for methanol.

[3] = design: method as in PMID 30957824; settings: cited from earlier work
Text: In combination with fluorescent spectroscopy, α-amino acids have also been used for molecular imaging, providing a method to study and visualise cellular processes in real time.[3] […] Furthermore, their occurrence at multiple sites within a protein can complicate spectroscopic analysis. To overcome these issues, many studies utilise extrinsic fluorescent labels.[4] However, these are typically large chromo ...

[4] = Solvatochromism of 13c–13e (emission in various solvents); type: physicochemical; settings: emission in solvents of different polarity
Experimental: Measurements were performed at five different concentrations. […] Integrated fluorescence intensity was plotted as a function of the measured absorbance and a linear fit was calculated. […]
Subscript ST signifies the quantities associated with the quantum yield standard. Subscript X signifies the quantities associated with the novel compound. […]

[5] = ethanol; standard reference; ref 9 (supplement); cited from earlier work
Experimental: page 24: 5. Photophysical Data for a-Amino Acids 13a–e Absorption and emission data were recorded using the following instruments: 1. UV-Vis spectra were recorded on a Perkin Elmer Lamda 25 instrument. Fluorescence spectra were recorded on a Shimadzu RF-5301PC spectrofluorophotometer. Emission data were measured using excitation and emission bandpass filters of 3 nm. 2. Both UV-Vis spectra and fluorescence spectra were recorded on a Horiba Duetta Fluorescence and Absorbance spectrometer. Absorbance spectra were recorded with an integration time of 0.05 s, and a band pass of 5 nm. Fluorescence ...

[6] = Circular dichroism spectroscopy of modified TrpZip1 peptide; type: physicochemical
Experimental: Following successful preparation of the carbazole α-amino acids, these were investigated as structural mimics of tryptophan. The effect of substituting amino acid 13e for a tryptophan residue in a well-characterised designed peptide was studied. The beta hairpin TrpZip1 was chosen as a model of beta structure.[21] An Fmoc-derivative of amino acid 13e was prepared under standard conditions and incorporated into the peptide using SPPS protocols. The resulting peptide, 14 (Table 1) was purified by reverse phase HPLC and characterised using high resolution electrospray ionisation mass spectrometry.

Row | Compound | ε (molar attenuation coefficient) ([1]; MeOH) | λ Abs ([1]; MeOH) [nm] | λ Em ([1]; MeOH) [nm] | ε (molar attenuation coefficient) ([1]; Water) | λ Abs ([1]; Water) [nm] | λ Em ([1]; Water) [nm] | Brightness ([2]; MeOH) | Φ F (quantum yield) ([2]; MeOH) | Brightness ([2]; Water) [cm⁻¹ M⁻¹] | Φ F (quantum yield) ([2]; Water) | λ Em (second wavelength) ([1]; MeOH) [nm] | also measured
1 | COc1ccc2c(c1)[nH]c1ccc(C[C@H](N)C(=O)O)cc12.Cl [amino acid 13b, (2S)-2-Amino-3-(7-methoxy-9H-carbazol-3’-yl)propanoic acid hydrochloride] | 12 700 cm^−1 M^−1 | 329 | 354 | 12 100 cm^−1 M^−1 | 331 | 357 | 4450 cm⁻¹ M⁻¹ | 0.35 | 5200 | 0.43 | – | –
2 | N#Cc1cccc2[nH]cc(C[C@H](N)C(=O)O)c12 [compound 3, L-4-cyanotryptophan] | – | – | – | – | – | – | – | – | – | – | – | fluorescence lifetime [3]: long fluorescence lifetime
3 | Cl.N[C@@H](Cc1ccc2[nH]c3ccc4ccccc4c3c2c1)C(=O)O [amino acid 13c, (2S)-2-Amino-3-(7H-benzo[c]carbazol-10-yl)propanoic acid hydrochloride] | 16 100 cm^−1 M^−1 | 351 | 371 | 10 900 cm^−1 M^−1 | – | 377 | 12 240 cm^−1 M^−1 | 0.76 | 6430 | 0.59 | 388 | solvatochromism [4]: minimal solvatochromism; λ Em (second wavelength) ([1]; Water): 390 nm
4 | c1ccc2cc3ccccc3cc2c1 [Anthracene] | – | – | – | – | – | – | – | – | – | – | – | quantum yield of standard [5]: 0.27
5 | Cl.N[C@@H](Cc1ccc2[nH]c3cc(C(F)(F)F)ccc3c2c1)C(=O)O [amino acid 13e, (2S)-2-amino-3-(7-trifluoromethyl-9H-carbazol-3’-yl)propanoic acid hydrochloride] | 11 600 cm^−1 M^−1 | – | 365 | 14 000 cm^−1 M^−1 | 348 | 380 | 700 cm⁻¹ M⁻¹ | 0.06 | 3360 | 0.24 | 378 | solvatochromism [4]: minimal solvatochromism; increase in brightness in water ([2]; water relative to methanol): ~5 fold; ε and quantum yield in water ([2]; water relative to methanol): enhanced in water
6 | peptide 14: TrpZip1 modified with amino acid 13e (SWTWEGNK-{13e-Thr-Trp-Lys-NH2}; reading uncertain) | – | – | – | – | – | – | – | – | – | – | – | secondary structure ([6]; CD, carbazole amino acid 13e replacing tryptophan in TrpZip1): preserved the original secondary structure; CD maximum ([6]; circular dichroism): 228 nm; CD minimum ([6]; circular dichroism): 214 nm; near-UV CD signal ([6]; circular dichroism, indicative of ordered aromatic side chains): 280–310 nm
7 | Cl.N[C@@H](Cc1ccc2[nH]c3ccccc3c2c1)C(=O)O [amino acid 13a, (2S)-2-Amino-3-(9H-carbazol-3’-yl)propanoic acid hydrochloride] | 16 500 cm^−1 M^−1 | 342 | 350 | 8800 cm⁻¹ M⁻¹ | 341 | 352 | 5120 cm⁻¹ M⁻¹ | 0.31 | 2460 | 0.28 | 366 | λ Em (second wavelength) ([1]; Water): 366 nm
